Reference: PubChem BioAssay AID1996
≈ marks a conversion by molar mass, not a printed value. Non-standard residues stand in square brackets, D forms with d. Residues, ends and D or L forms follow the SMILES beside them. ξ: configuration not given here. *: point of attachment. ξN = NC(=O)CC(N)C(=O)O; Boc = CC(C)(C)OC(=O)*

conditions: buffer; pH 7.4; 200.0 µM

| Structure (SMILES) | solubility kinetic [mg/mL] |
| --- | --- |
| O=C(Cc1ccc(Cl)cc1Cl)Nc1ccncc1Cl | 0.0124 (≈ 39.3 µM) |
| O=C(Nc1cccc(-c2cn3cccnc3n2)c1)Nc1ccccc1F | 0.0017 (≈ 4.89 µM) |
| CCn1c2ccccc2c2nc3cc(S(=O)(=O)N4CCOCC4)ccc3nc21 | 0.0024 (≈ 6.05 µM) |
| Cc1cccc(OCCCCCN2CCOCC2)c1C | 0.0286 (≈ 103 µM) |
| CCOc1ccc(S(=O)(=O)N=C(c2ccccc2)N2CCOCC2)cc1 | > 0.0562 |
| CN(Cc1ccccc1F)C(=O)CCCNC(=O)c1ccc(Cl)cc1 | 0.0324 (≈ 89.3 µM) |
| Cc1ccc(N2CC(O)Cn3c2nc2c3c(=O)[nH]c(=O)n2C)cc1 (centres undefined) | 0.0162 (≈ 49.5 µM) |
| O=C(COC(=O)c1ccc(O)cc1)Nc1ccccc1 | > 0.0407 |
| CC1CC1C(=O)Nc1nc2ccc(S(C)(=O)=O)cc2s1 (centres undefined) | > 0.0466 |
| CN(C)c1nc(-c2ccccc2)ns1 | 0.0125 (≈ 60.9 µM) |
| CC(OC(=O)C1=COCCO1)C(=O)Nc1ccc(Cl)cn1 (centres undefined) | > 0.0469 |
| COc1ccc(NS(=O)(=O)c2cccc(C(=O)N3CCN(C(=O)c4ccco4)CC3)c2)cc1 | 0.0681 (≈ 145 µM) |
| COc1cccc(C(=O)NC23CC4CC(CC(C4)C2)C3)c1 | 0.0248 (≈ 86.9 µM) |
| COc1cc(OC)cc(C(=O)NC2CC3CCC(C2)N3C)c1 (centres undefined) | 0.0384 (≈ 126 µM) |
| O=C1NC(=O)N(c2ccc(F)cc2)C(=O)/C1=C/c1ccsc1 | > 0.0474 |
| COCc1c(C(=O)NC2CCCCCC2)oc2ccccc12 | 0.0104 (≈ 34.5 µM) |
| COc1ccc2nc(SC)cc(C)c2c1 | 0.0037 (≈ 16.9 µM) |
| COc1ccc(C(=O)NC(=O)COC(=O)c2ccc(C)o2)cc1 | 0.007 (≈ 22.1 µM) |
| CCc1c(O)nc(SC2CC(=O)N(c3ccc(F)c(Cl)c3)C2=O)[nH]c1=O (centres undefined) | 0.0557 (≈ 140 µM) |
| O=C(O)c1ccccc1C(=O)NC1CCCCNC1=O (centres undefined) | > 0.0414 |
| Cn1cc(CCCC(=O)NCc2ccc(F)cc2)c2ccccc21 | 0.0227 (≈ 70 µM) |
| Cc1nc(COc2cccc(Cl)c2)sc1C(=O)/C=C/N(C)C | > 0.0505 |
| COc1ccccc1CNC(=O)COC(=O)/C=C/c1ccc2c(c1)OCO2 | 0.0054 (≈ 14.6 µM) |
| N#Cc1c(N)nc2c(c1-c1ccc(F)cc1)c(=O)nc1sccn12 | 0.0057 (≈ 16.9 µM) |

| Structure (SMILES) | solubility kinetic [mg/mL] |
| --- | --- |
| CCOC(=O)CNC(=O)C1c2ccccc2Oc2ccccc21 | 0.0019 (≈ 6.1 µM) |
| Cc1ccc(NC(=O)CN(C)C(=O)c2ccc(Cl)c(S(=O)(=O)NCc3ccco3)c2)cc1 | 0.009 (≈ 18.9 µM) |
| O=c1[nH]c(/C=C/c2cccc(Br)c2)nc2ccccc12 | < 0.0004 |
| CCOc1cc(N2CCOCC2)c(OCC)cc1NC(=O)c1cnccn1 | 0.0119 (≈ 32 µM) |
| O=C(Nc1c(S(=O)(=O)c2ccccc2)csc1Br)c1ccccc1Cl | 0.0429 (≈ 93.9 µM) |
| COc1cc(C)c(S(=O)(=O)NCc2cccnc2)cc1C | > 0.046 |
| O=C(CCc1ccccc1)NCc1ccc(F)cc1 | 0.0341 (≈ 133 µM) |
| COc1ccc(NC(=O)CN2CCN(Cc3ccccc3)CC2)cc1 | > 0.0509 |
| COc1ccc(CNC(=O)c2cc3c(=O)[nH]c4ccccc4c3n2C)cc1 | < 0.0003 |
| COc1ccc(C(=O)NCc2ccccn2)cc1[N+](=O)[O-] | > 0.0431 |
| O=C(COC(=O)c1ccc[n+]([O-])c1)Nc1ccc([N+](=O)[O-])cc1C(F)(F)F | > 0.0578 |
| CC(=O)NC(CC(=O)NCCc1ccccc1)c1ccccc1 (centres undefined) | 0.0457 (≈ 147 µM) |
| N#Cc1ccccc1NC(=O)COC(=O)c1cccs1 | 0.004 (≈ 14 µM) |
| COc1ccc(CNC(=O)C(=O)NCCCn2ccnc2)cc1 | > 0.0475 |
| O=C(NCCNC(=O)c1ccc(Cl)cc1Cl)c1ccco1 | 0.0307 (≈ 93.8 µM) |
| O=C(Nc1ccccn1)c1ccc(C(=O)c2ccccc2)cc1 | 0.0216 (≈ 71.4 µM) |
| C=CCON/C(CCC)=C1\C(=O)CC(C)(C)CC1=NC | 0.0349 (≈ 125 µM) |
| O=S1(=O)CCC(NS(=O)(=O)c2ccc3ccccc3c2)C1 (centres undefined) | > 0.0488 |
| COc1ccccc1NS(=O)(=O)c1ccc(N2CCOCC2)c(N)c1 | 0.0051 (≈ 14 µM) |
| CC(C)CNC(=O)COC(=O)Cc1ccc(Cl)cc1 | 0.0361 (≈ 127 µM) |
| Cc1ccc2c(c1)N(CC(=O)N1CCCC(C)C1)C(=O)CO2 (centres undefined) | 0.0453 (≈ 150 µM) |
| Cc1ccc(C(C[N+](=O)[O-])Sc2ccc(N)cc2)cc1 (centres undefined) | 0.0214 (≈ 74.2 µM) |
| O=C(Cc1ccccc1)NCC(=O)Nc1ccccc1Br | 0.0514 (≈ 148 µM) |
| CCCn1c(=O)c(C#N)cn(C2CC2)c1=O | 0.0324 (≈ 148 µM) |

| Structure (SMILES) | solubility kinetic [mg/mL] |
| --- | --- |
| COC(=O)Nc1nc2ccc(Sc3ccccc3)cc2[nH]1 | 0.0009 (≈ 3.01 µM) |
| N/C(=N\OC(=O)c1ccc(OCC(F)(F)F)nc1)c1ccc(Cl)cc1 | 0.0012 (≈ 3.21 µM) |
| Cc1cccc(C)c1NC(=O)CNC(=O)c1cnccn1 | > 0.0426 |
| Cc1ccc(S(=O)(=O)Nc2cnc3ccccc3c2)cc1 | > 0.0448 |
| O=C(/C=C/c1ccc(S(=O)(=O)N2CCOCC2)cc1)Nc1ccc(F)c(F)c1F | 0.0069 (≈ 16.2 µM) |
| CC1(C)CC(NS(=O)(=O)c2ccc(Cl)cc2)CC(C)(C)N1 | > 0.0496 |
| Fc1ccc(-c2nc(-c3cccs3)no2)cc1 | < 0.0003 |
| COC(CN(C)C(C(=O)NC1CCCCC1)c1ccccc1)OC (centres undefined) | > 0.0502 |
| Cc1ccc2[nH]c3c(c2c1)CNCC3.Cl | 0.0317 |
| CC(c1ccccc1)N1CC(C(=O)Nc2nccs2)CC1=O (centres undefined) | > 0.0473 |
| COc1ccc2nc(SCC(=O)NC3CC3)c(C#N)cc2c1 | 0.0008 (≈ 2.55 µM) |
| CCOc1ccc(-c2noc(-c3cccnc3)n2)cc1OCC | 0.0022 (≈ 7.07 µM) |
| Cl.Nc1nc2nc[nH]c2c(=O)[nH]1 | 0.0215 |
| CC[n+]1c(C)n(-c2ccccc2)c2ccc(NC(C)=O)cc21.[I-] | > 0.0632 |
| O=C(CSc1ccc(F)cc1)N1CCOCC1 | > 0.0383 |
| Cc1ccc(NC(=O)CN(C)C(=O)Cc2c[nH]c3ccccc23)cc1 | > 0.0503 |
| O=C(NC(=S)Nc1ccccc1OC(F)F)c1ccc2c(c1)OCO2 | 0.0044 (≈ 12 µM) |
| Cl.c1ccc(SCCCCN2CCOCC2)cc1 | 0.0382 |
| Cc1ccc(C(=O)CCC(=O)Nc2cc(C)ccn2)cc1 | 0.0062 (≈ 22 µM) |
| Cc1ccccc1NC(=O)NCc1ccccn1 | > 0.0362 |
| O=C(NCCCCc1ccccc1)c1cc([N+](=O)[O-])cc([N+](=O)[O-])c1 | 0.0099 (≈ 28.8 µM) |
| O=C(OCc1ccc(Br)cc1)c1cccnc1 | 0.0405 (≈ 139 µM) |
| CCOC(=O)CC(=O)Nc1ccsc1C(N)=O | 0.0361 (≈ 141 µM) |
| CCOC(=O)CC(=O)NC(CC(=O)OC)c1ccc(Br)cc1 (centres undefined) | 0.0457 (≈ 123 µM) |

| Structure (SMILES) | solubility kinetic [mg/mL] |
| --- | --- |
| CC1=C(C)CC(C(=O)NC2CCCC2)C(C(=O)O)C1 (centres undefined) | > 0.0398 |
| C=CCn1c(O)c(C(C)=NC2CCN(Cc3ccccc3)CC2)c(=O)[nH]c1=O | 0.0536 (≈ 140 µM) |
| Cc1ccc(OCC(=O)OCC(=O)Nc2ccc3c(c2)OCO3)cc1C | 0.0096 (≈ 26.9 µM) |
| Cc1cccc(N2CCN(C(=O)c3ccc4ccccc4c3)CC2C)c1 (centres undefined) | 0.0074 (≈ 21.5 µM) |
| O=C1/C(=C/c2ccccn2)SC(=S)N1c1ccc(O)cc1 | 0.0005 (≈ 1.59 µM) |
| Cc1cccc(NC(=O)N2CCc3ccccc3C2)c1C | 0.0065 (≈ 23.2 µM) |
| CC(Cc1c[nH]c2ccccc12)NC(=O)OCCCl (centres undefined) | > 0.0421 |
| CCNC(=O)N1CCC(c2nc3ccccc3s2)CC1 | > 0.0434 |
| Cc1ccc(C)c(NS(=O)(=O)c2ccc3[nH]c(=O)[nH]c3c2)c1 | 0.0048 (≈ 15.1 µM) |
| NC(=O)c1cc(Cl)ccc1OCC(=O)NC1CC1 | > 0.0403 |
| Cc1cc(N2C(=O)C(O)=C(C(=O)c3cccs3)C2c2ccc(F)cc2)no1 (centres undefined) | > 0.0577 |
| COCc1cc(C)nc(SCc2ccc(Br)cc2)c1C#N | < 0.0004 |
| COc1cccc(CNC(=O)CCc2ccc(OC)c(OC)c2)c1 | > 0.0494 |
| N#C/C(=C\c1ccccc1)C(=O)Nc1cccnc1 | 0.0183 (≈ 73.4 µM) |
| O=C(CCc1nc(-c2ccccc2Cl)no1)Nc1cccnc1 | 0.0493 (≈ 150 µM) |
| Cc1ccc(C(=O)N=c2sccn2C)o1 | 0.0329 (≈ 148 µM) |
| CC(C)(C)S(=O)(=O)c1cnc(-c2ccccn2)nc1N | 0.0341 (≈ 117 µM) |
| CCN1CCn2c3c(c4cccc(C)c42)CCCC31.Cl (centres undefined) | 0.0336 |
| O=C(O)CN1C(=O)/C(=C/c2ccccc2Cl)Oc2ccccc21 | > 0.0495 |
| NS(=O)(=O)c1ccc(CNC(=O)c2cccnc2Cl)cc1 | 0.0383 (≈ 118 µM) |
| COc1cc(C(=O)OC2CCOC2=O)c([N+](=O)[O-])cc1OC (centres undefined) | > 0.0467 |
| Cn1c(=O)n(CC(=O)O)c(=O)c2c1nc1n2CCCN1Cc1ccccc1 | 0.0513 (≈ 139 µM) |
| Cc1ccc(-c2nc(C=Nc3ccccc3)c(O)o2)cc1 | 0.0047 (≈ 16.9 µM) |
| O=C(O)COCC(=O)Nc1ccc(-n2cnnn2)cc1 | > 0.0416 |

| Structure (SMILES) | solubility kinetic [mg/mL] |
| --- | --- |
| CCOC(=O)CNC(=O)C(CC(N)=O)NC(=O)OC(C)(C)C (centres undefined) (Boc-[ξN]-Gly-OEt) | > 0.0476 |
| COc1ccc(C2(C(=O)Nc3ccc(C)cc3)CCOCC2)cc1 | > 0.0488 |
| S=C(NCc1ccncc1)Nc1cc(Cl)cc(Cl)c1 | 0.0056 (≈ 17.9 µM) |
| O=C1c2cccc3c([N+](=O)[O-])ccc(c23)C(=O)N1O | > 0.0387 |
| O=C(NCCOc1ccc(Cl)cc1)c1ccco1 | 0.0259 (≈ 97.5 µM) |
| COC(=O)/C=C1\NCCNC1=O | > 0.0255 |
| CN1CCCC(OC(=O)/C(C#N)=C/c2ccccc2)C1.Cl (centres undefined) | > 0.046 |
| Cc1ccc(C2(C)NC(=O)N(CC(=O)N3CCc4ccccc43)C2=O)cc1 (centres undefined) | 0.0036 (≈ 9.91 µM) |
| O=C(N[C@@H](Cc1ccccc1)C(=O)O)c1cccs1 | > 0.0413 |
| CC(=O)N/C(=C\c1ccccc1)C(=O)NC(C)C(=O)O (centres undefined) | > 0.0414 |
| COc1ccc(CN(CCC(c2ccco2)C(C)C)C(C)=O)cc1OC (centres undefined) | 0.0492 (≈ 137 µM) |
| CC(C)c1ccc(NC(=O)NCc2ccc3c(c2)OCO3)cc1 | < 0.0003 |
| Cc1ccn2cc(CCNC(=O)C3CC=CCC3C(=O)O)nc2c1 (centres undefined) | 0.0457 (≈ 140 µM) |
| CSc1cccc(NC(N)=S)c1 | 0.0292 (≈ 147 µM) |
| O=C(O)CCn1c(Cc2ccccc2)nc2ccccc21 | > 0.042 |
| COc1cc(-c2cc(C(=O)OCC(=O)NC3CC3)c3ccccc3n2)cc(OC)c1OC | 0.0037 (≈ 8.48 µM) |
| CN(C)C(=S)Nc1ccc(Cl)cc1 | > 0.0322 |
| Cc1ccc(N2C(=O)CSC2c2cccnc2)c(Cl)c1 (centres undefined) | > 0.0457 |
| O=C(CNC(=O)c1ccc(OC(F)F)cc1)NCC1CCCO1 (centres undefined) | > 0.0492 |
| NC(=O)c1sc2nc(-c3ccccc3)ccc2c1N | 0.001 (≈ 3.71 µM) |
| O=[N+]([O-])c1[nH]cnc1/C=C/c1ccccc1 | 0.0018 (≈ 8.36 µM) |
| CC(C)C(=O)OCC(=O)NCc1ccccc1Cl | 0.0376 (≈ 139 µM) |
| C=CCN1C(=O)C2(OCCCO2)c2cccc(C)c21 | 0.0379 (≈ 146 µM) |
